# Results from US20160082133A1, “CHEMICAL EXCHANGE SATURATION TRANSFER (CEST) BASED MRI USING REPORTER GENES AND SUBSTRATES AND METHODS THEREOF” (The Johns Hopkins University, priority 2013, published 2016).
# Legend:
# [1] = test system: C17.2 cells; assay: 19F NMR detection of conversion of 5FC to 5FU, C17.2 cells; type: cell-based, mouse; set-up: key: (−): no 5FU was detected; conditions: 10 mM 5FC
# Description: (§1) For each cell type, the same number of transduced (CD) or non-transduced (wild type, WT) cells were plated into 6-well plates (5.6×10^6 HEK293FT cells, 10^6 9 L cells, and 1.4×10^6 C17.2 cells, respectively). Approximately 6 hours later, fresh culture medium containing 7 mM cytosine or 10 mM 5FC was added to the cells. Fifty microliters of the culture media were collected at different time points up to 24 hours for HEK293FT cells (i.e. 0.5, 4, 6, and 24 hours), and up to 48 hours for the other two cell lines (i.e., 0.5, 4, 6, 24, and 48 hours). These samples were then transferred into capillaries and measured for CEST signal at 2 ppm for cytosine and 2.4 ppm for 5FC.
# (§2) Studies were performed using a 500 MHz Bruker NMR spectrometer. ^19F NMR spectra of the enzymatic mixture or aqueous solutions of 10 mM 5FC and 5FU standards (FIG. 30 a and b) were acquired using a single-pulse sequence with a flip angle of 90°, TR=5 sec, and NA=32, carried out at 25° C. with the spectra centered at the resonance frequency of 5FC. NMR data were processed and plotted using Topspin (Bruker, M A). For the cell culture media incubated with 10 mM 5FC for 24 and 48 hours for all three cell types, the ^19F NMR spectrum was measured using the same protocol, except the number of averages was changed to 64 to improve SNR. 5FU peaks were only detected for HEK293FT cells after 24-hour and for 9L cells after 48 hours (FIG. 30 c,d). The complete results of the conversion detected using F NMR are listed in Table 1, as quantified by a conversion rate=peak area(5FU)/(peak area(5FU)+peak area(5FC)).
# [2] = test system: HEK293FT; assay: Cell proliferation assay, HEK293FT; type: cell-based, Human; conditions: CD-transduced HEK293FT, 10 mM 5FC, 40 hours
# Description: (§3) Both wild type- and CD-transduced cells were plated in 96-well cell culture plates to reach a sufficient cell number before 5FC treatment. Then media were replaced with media containing 10 mM 5FC. After 40 hours of incubation, cell viability was determined using a […] assay kit (Invitrogen).
# [3] = test system: HEK293FT cells; assay: CEST MRI of culture media, CDase activity in HEK293FT cells; type: cell-based, Human; conditions: HEK-293FT; 7 mM cytosine or 10 mM 5FC
# Text: (§4) All MR images were acquired with a 9.4T Bruker Avance system equipped with a 15 mm sawtooth RF coil. A modified RARE sequence (TR=6.0 sec, effective TE=43.2 ms, RARE factor=16, slice thickness=0.7 mm, FOV=14×14 mm, matrix size=128×64, resolution=0.11×0.22 mm^2, and NA=2) including a magnetization transfer (MT) module (one CW pulse, B=[…] (150 Hz), 3 sec) was used to acquire CEST-weighted images from −6 ppm to 6 ppm (step=0.2 ppm) around the water resonance (0 ppm). The absolute water resonant frequency shift was measured using a Water Saturation Shift Reference (WASSR) (Kim, M. et al. Magnetic Resonance in Medicine 2009, 61, 1441) method modified (Liu, G. et al. Contrast Media Mol Imaging 2010, 5, 162) with Lorentzian analysis. […]
# (§5) Data processing was performed using custom-written scripts in MATLAB (Mathworks, Waltham, Mass.). CEST spectra were calculated from the mean of an ROI placed over each sample after B0 correction of the contrast on a per voxel basis. The CEST signal was quantified using MTRasym at specific offsets of interest (i.e., &ω=+2 ppm for cytosine or +2.4 ppm for 5FC) using the definition: MTRasym=(S^−˜ω−S^+″ω)/S0, where and s[−˜ω, +Aω] is the water signal intensity in the presence of a saturation pulse at offsets ±Aω, and S0 is water signal intensity in the absence of a saturation pulse. […]
# [4] = test system: 9L; assay: Cell proliferation assay, 9L; type: cell-based, Rat; conditions: CD-transduced 9L, 10 mM 5FC, 40 hours
# Description: as §3
# [5] = molecular target: T1, Escherichia coli CDase (CodA) (Escherichia coli, UniProt P25524); assay: Deamination by crude recombinant CDase extracts measured using CEST MRI; type: biochemical; conditions: 20 mM substrate, crude CDase extract, 37° C.
# T1 construct: 6xHis (C); made in house; host or cells: E. coli BL21 (DE3), crude protein extract
# Description: FIGS. 9A-9D show monitoring of recombinant CDase activity using CEST MRI. (FIG. 9A) Western blot using an anti-six-histidine-tag antibody of protein extracts from E. coli engineered to express CD or HSV1-tk (TK). (FIG. 9B) Deamination of cytosine and 5FC (20 mM) by crude CDase extracts measured using CEST MRI at 37° C. and 9.4 T. Conversion was quantified as (1−MTR^tasym/MTR^0asym)×100%, where MTR^tasym/MTR^0asym are the contrasts at time t, and at t=0, respectively. (FIG. 9C, D) maps and statistical analysis (two tailed unpaired students t-test; n=3) of 20 mM (FIG. 9C) cytosine and (FIG. 9D) 5 FC incubated with CDase (0.6 ug crude protein) for 24 hours.
# The gene encoding the E. coli Cytosine Deaminase (CDase, CodA) was obtained from the American Type Culture Collection (ATCC Cat. 4099). […] Both genes were sub-cloned into the pEXP5-CT expression vector (Invitrogen) in a reading frame with a C-terminal six-histidine tag under a T7 promoter. […] The recombinant proteins were expressed after induction in Magic Media™ (Invitrogen), and both could be detected with Western blot using an anti-6-histidine tag antibody. […]
# Data processing was performed using custom-written scripts in MATLAB (Mathworks, Waltham, Mass.). CEST spectra were calculated from the mean of an ROI placed over each sample after B0 correction of the contrast on a per voxel basis. […]
# [6] = test system: HEK293FT cells; assay: 19F NMR detection of conversion of 5FC to 5FU, HEK293FT cells; type: cell-based, Human; set-up: key: (−): no 5FU was detected; conditions: 24 hours, 10 mM 5FC
# Description: as §1
# as §2, with “NMR data were processed and plotted using Topspin (Bruker, M A).” left out, “The complete results of the conversion detected using F NMR are listed in Table 1, as quantified by a conversion rate=peak area(5FU)/(peak area(5FU)+peak area(5FC)).” left out
# [7] = test system: 9L cells; assay: 19F NMR detection of conversion of 5FC to 5FU, 9L cells; type: cell-based, Rat; set-up: key: (−): no 5FU was detected; conditions: 10 mM 5FC
# Description: as §1, §2
# [8] = test system: 9L cells; assay: CEST MRI of culture media, CDase activity in 9L cells; type: cell-based, Rat; conditions: CDase-expressing 9L cells, 48 h incubation
# Text: as §4, §5
# [9] = test system: 9L^HSV1-tk cells; assay: In vitro uptake assay; type: cell-based, rat; conditions: 1 and 3 h of incubation, 1 μCi
# Description: One million cells (9L^wt and 9L^HSV1-tk in triplicates) were incubated in […] medium containing 1 μCi [^125I]FIAU at 37° C. for 1 and 3 h. Cells were pelleted by centrifugation and washed 3 times with cold PBS. Gamma counter was used to monitor the radioactivity of the incubating medium and the incubated cells. [^125I]FIAU uptake was determined as the relative radioactivity (in percentage) of the cells to that of the incubating [^125I]FIAU medium (without cells).
# [10] = molecular target: T2, HSV1-TK (Human herpesvirus 1, UniProt P0DTH5); assay: SPECT/CT imaging of HSV1-TK expression; type: in vivo, mice; conditions: 3 h after iv injection
# T2 construct: V5; expressed in transfected cells; host or cells: 9L rat glioma cells transfected with pcDNA3.1-HSV1-tk, single G418-selected clone, implanted in NOD-SCID mouse brain
# Description: An X-SPECT small-animal SPECT/CT system (Gamma Medica-Ideas) was used for image acquisition as previously described (Nimmagadda et al., J. Nucl. Med. 2009, 50, 1124). Briefly, seven days after cell implantation, the mice were injected iv with 50.3 MBq (1.36 mCi) of ^[125I]FIAU. SPECT data were acquired 3 h after radiotracer injection, and the obtained images were coregistered with the corresponding 512 slice CT images. Fused SPECT/CT transaxial sections of 1 mm thickness were generated using Amira 5.2.0 software (Visage Imaging Inc.) showing the SPECT signal obtained from the brain.
# [11] = Exchange rate estimation by QUEST method; type: physicochemical; conditions: pH 7.4, 37° C.; cytosine 2 ppm, 5FC 2.4 ppm
# Description: The exchange rate of exchangeable protons with a frequency of 2 ppm for cytosine and 2.4 ppm for 5FC at pH=7.4 was measured using the modified Quantifying Exchange using Saturation Time (QUEST) method (McMahon, M. T. et al. Magn Reson Med 2006, 55, 836). In brief, the CEST contrast for samples containing 20 mM cytosine or 5FC (40 mM of amine protons) at pH 7.4 was measured with saturation delays of 0.5, 1, 1.5, 2, 3, 5, and 9.5 sec, using a saturation field strength of 5.9 μT (300 Hz) and a repetition time (TR) set to 10 sec, using the RARE imaging sequence described above. The calculated MTRasym values were then fit using numerical solutions to the Bloch-McConnel equations with an exchange rate (kex). The water T1w and T2w were experimentally determined as approximately 4 sec and 1.6 sec, respectively, using the saturation recovery spin echo method and the CPMG multi-echo spin echo sequence, respectively. The fixed model parameters were water solute R1s=0.71 Hz and solute R2s=39 Hz.
# [12] = molecular target: T3, Dm-dNK (Drosophila melanogaster, UniProt Q9XZT6); assay: Fluorescence of cell lysates after incubation with pyrrolo-dC; type: cell-based, rat; conditions: 2 mM, 4 hours
# T3 construct: expressed in transfected cells; host or cells: 9L rat glioma cells transfected with a pcDNA vector
# Description: (§6) Pyrrolo-dC was dissolved in 10 mM PBS at 20 mM concentration. CEST MRI experiments were performed on an 11.7T Bruker Avance system as previously described (G. Liu et al., Contrast Media Mol Imaging 5, 162 (2010)). A modified RARE (TR/TE=6000/9.4 ms) including a magnetization transfer module (B1=4.7 μT/4000 ms) was used to acquire CEST weighted images. The absolute water resonant frequency shift was measured using a modified WASSR method, with the same parameters as in CEST imaging except TR=1.5 sec and saturation pulse of B1=0.5 μT/250 ms. Mean CEST-spectra were derived from a ROI for each sample, after B0 correction for each voxel using MatLab. MTR asymmetry (MTRasym)=100×(S^−Δω−S^+Δω/S0 was computed at different offsets Δω. 9L rat glioma, engineered to express Drosophila melanogaster 2′-deoxynucleoside kinase (Dm-dNK; 9L^Dm-dNK) and control, non-expressing cells (9L^wt), 5×10^6 cells per group, were incubated for 4 hours at cell-culture medium containing 2 mM pyrrolo-dC. Then, the cells were washed with PBS, lysed and fluorescence was measured in triplicates using a plate reader (lex355 nm/lem460 nm).
# [13] = CEST MRI of pyrrolo-dC in PBS; type: physicochemical; conditions: 20 mM in PBS, 5.8 ppm, 11.7T
# Description: as §6
# T1 sequence (P25524 whole entry): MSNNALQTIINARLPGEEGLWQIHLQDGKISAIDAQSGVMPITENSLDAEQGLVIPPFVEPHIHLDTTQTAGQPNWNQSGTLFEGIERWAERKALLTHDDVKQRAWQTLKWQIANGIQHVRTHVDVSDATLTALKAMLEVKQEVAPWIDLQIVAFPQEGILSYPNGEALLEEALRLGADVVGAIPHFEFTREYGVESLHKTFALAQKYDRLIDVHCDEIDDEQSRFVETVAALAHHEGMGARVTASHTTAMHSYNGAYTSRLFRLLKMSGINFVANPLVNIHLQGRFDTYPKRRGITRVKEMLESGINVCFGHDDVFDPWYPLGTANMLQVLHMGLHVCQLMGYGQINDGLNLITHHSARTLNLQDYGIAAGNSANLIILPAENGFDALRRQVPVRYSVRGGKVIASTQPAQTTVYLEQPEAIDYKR
# T3 sequence (Q9XZT6 whole entry): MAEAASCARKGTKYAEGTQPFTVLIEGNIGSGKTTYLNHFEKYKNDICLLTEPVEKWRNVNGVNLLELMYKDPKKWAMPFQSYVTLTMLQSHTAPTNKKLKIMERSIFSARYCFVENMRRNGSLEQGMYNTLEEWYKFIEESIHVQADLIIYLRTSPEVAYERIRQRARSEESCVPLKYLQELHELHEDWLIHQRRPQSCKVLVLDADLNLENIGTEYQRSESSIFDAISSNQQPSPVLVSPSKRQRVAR
# T2 sequence (P0DTH5 whole entry): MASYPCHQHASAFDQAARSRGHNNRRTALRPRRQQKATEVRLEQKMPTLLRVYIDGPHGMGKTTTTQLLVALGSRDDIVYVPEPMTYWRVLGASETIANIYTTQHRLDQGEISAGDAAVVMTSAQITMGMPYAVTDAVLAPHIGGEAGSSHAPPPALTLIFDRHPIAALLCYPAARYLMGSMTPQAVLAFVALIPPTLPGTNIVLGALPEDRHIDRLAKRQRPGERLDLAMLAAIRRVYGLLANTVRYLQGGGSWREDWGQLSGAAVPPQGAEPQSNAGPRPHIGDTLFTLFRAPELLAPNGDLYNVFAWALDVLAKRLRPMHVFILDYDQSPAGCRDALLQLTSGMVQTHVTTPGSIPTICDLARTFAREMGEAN
smiles,measurement,setting,value
"Nc1nc(=O)[nH]cc1F [5FC, 5-fluorocytosine]",19F NMR conversion of 5FC to 5FU,"[1]; C17.2 CD, 24 hours",(−)
same,19F NMR conversion of 5FC to 5FU,"[1]; C17.2 CD, 48 hours",(−)
same,19F NMR conversion of 5FC to 5FU,"[1]; C17.2 WT, 24 hours",(−)
same,19F NMR conversion of 5FC to 5FU,"[1]; C17.2 WT, 48 hours",(−)
same,number of viable cells after 5FC treatment,[2],considerable decrease in the number of viable cells
same,incubation time at which a significant difference in MTRasym between transduced and nontransduced cells was observed,[3],24 h
same,number of viable cells after 5FC treatment,[4],considerable decrease in the number of viable cells
same,conversion by recombinant CDase after 24 h,[5],not the case
same,19F NMR conversion of 5FC to 5FU,[6]; HEK293FT CD,38.9%
same,19F NMR conversion of 5FC to 5FU,[6]; HEK293FT WT,(−)
same,19F NMR conversion of 5FC to 5FU,"[7]; 9L CD, 24 hours",(−)
same,19F NMR conversion of 5FC to 5FU,"[7]; 9L CD, 48 hours",8.5%
same,19F NMR conversion of 5FC to 5FU,"[7]; 9L WT, 24 hours",(−)
same,19F NMR conversion of 5FC to 5FU,"[7]; 9L WT, 48 hours",(−)
same,relative change in MTRasym,[8],12%
O=c1[nH]c(=O)n([C@@H]2O[C@H](CO)[C@@H](O)[C@@H]2F)cc1[125I] [[^125I]FIAU],uptake in 9L^HSV1-tk cells compared to 9L^wt cells,[9],significant accumulation
same,accumulation in tumors by SPECT/CT,[10],only at the ^9LHSV1-tk tumor
Nc1cc[nH]c(=O)n1 [cytosine],incubation time at which a significant difference in MTRasym between transduced and nontransduced cells was observed,[3],4 h
same,conversion by recombinant CDase after 24 h,[5],nearly complete
same,"exchange rate (kex) of the amine protons, QUEST",[11],8.1×10^2 Hz
same,relative change in MTRasym,[8],50%
"Cc1cc2cn([C@H]3C[C@H](O)[C@@H](CO)O3)c(=O)nc2[nH]1 [pyrrolo-dC, Pyrrolo-2′-deoxycytidine]",fluorescence of lysate of incubated 9L^Dm-dNK cells,[12],high fluorescence level
same,fluorescence of lysate of incubated 9L^wt cells,[12],no fluorescence was detected
same,CEST contrast (MTRasym maps),[13],high CEST contrast
